Legend:
[1] = Release of Strecker aldehyde from 3-oxazoline precursor stirred in water at 37° C. (stable isotope dilution, HS-GC-MS / GC-MS); format: physicochemical; conditions: 5 min after addition of water at 37° C.
[2] = Impact of pH value on release of Strecker aldehyde from 3-oxazoline precursor in buffer solution at 37° C.; format: physicochemical
Description: (§1) 2-(2-Methylpropyl)-5-methyl-3-oxazoline (dissolved in pentane/diethyl ether; 2 mL) was added to ethanol (0.5 mL). The pentane/diethyl ether was carefully evaporated, and finally made up to 5 mL with ethanol. […] A control experiment was performed with 2-(2-methylpropyl)-5-methyl-3-oxazoline and the respective standard without adding the respective buffer solution. For headspace measurements, the samples were directly subjected to HS-GC-MS. For liquid measurements, the samples were cooled in an ice bath and extracted with diethyl ether (3×15 mL; liquid-liquid extraction). The organic phases were combined, dried over anhydrous sodium sulphate, and the solvent was distilled off (20° C., 500 mbar) to about 4 mL. An aliquot (2 μL) was used for the stable isotope dilution assays ((GC-) GC-MS).
as §1, with “2-Methylphenyl-5-methyl-3-oxazoline” for “2-(2-Methylpropyl)-5-methyl-3-oxazoline”, “2-methylphenyl-5-methyl-3-oxazoline” for “2-(2-methylpropyl)-5-methyl-3-oxazoline”

[3] = Sensory panel, malty aroma of cocoa-malt-based beverage spiked with oxazoline; conditions: cocoa-malt-based beverage 7.5 g + 10 mg oxazoline
Description: (§2) Cocoa-malt-based beverage (7.5 g) was weighted into a Pyrex bottle. The product was spiked with 2-(2-methylpropyl)-5-methyl-3-oxazoline (10 mg) and the sample was then reconstituted in 100 mL of cold (10° C.) or warm (60° C.) semi-skimmed milk. Samples without addition of oxazoline were prepared analogously and used as references. The impact of the addition of the oxazoline on the intensity of malty aroma (characteristic aroma of 3-methylbutanal) was evaluated by a sensory panel. Comparative profiling procedure was conducted using an 11-point scale ranging from −5 to +5. Assessors were asked to score the sample containing oxazoline against the reference. Reference product containing no added oxazoline was arbitrary positioned on the zero of the scale.

[4] = Sensory panel, malty aroma of coffee mix beverage spiked with oxazoline; conditions: coffee mix powder 16 g + 10 mg oxazoline, 130 ml hot (80° C.) water; scale −5 to +5, reference at zero
Description: as §2
(§3) Coffee mix powder (16 g) was weighted into a Pyrex bottle. The product was spiked with 2-(2-methylpropyl)-5-methyl-3-oxazoline (10 mg) and the sample was then reconstituted in 130 ml of hot (80° C.) water. Sample without addition of oxazoline was prepared analogously and used as reference. The impact of the addition of the oxazoline on the intensity of malty aroma (characteristic aroma of 3-methylbutanal) was evaluated by a sensory panel as described in example 9. […] To further substantiate the sensory results, the sample was analyzed by SPME-GCxGC-TOFMS.

[5] = SPME-GCxGC-TOFMS of 3-methylbutanal in coffee mix spiked with oxazoline; format: physicochemical
Description: as §3
The results (Table 7) indicate that the conversion of oxazoline to Strecker aldehyde is very high and reaches 77% in the analysed coffee mix sample (incubation 60° C./15 min).

[6] = Sensory panel, malty aroma of cereal based pap spiked with oxazoline; conditions: cereal powder 12.5 g + 10 mg oxazoline, scale −5 to +5
Description: as §2
Cereal powder (12.5 g) was weighted into a plastic dish. The product was spiked with 2-(2-methylpropyl)-5-methyl-3-oxazoline (10 mg) and the sample was then reconstituted in 100 ml of warm (60° C.) water or semi-skimmed milk. Sample without addition of oxazoline was prepared analogously and used as reference. The impact of the addition of the oxazoline on the intensity of malty aroma (characteristic aroma of 3-methylbutanal) was evaluated by a sensory panel as described in example 9.

## CC(C)CC1N=CC(C)O1 (stereo not drawn) [2-(2-methylpropyl)-5-methyl-3-oxazoline]
[1]
  3-methylbutanal released / precursor converted to Strecker aldehyde: about 75%
[2]; pH 5, Control without addition of buffer solution
  3-methylbutanal (mol %) generated from precursor: 0.5 mol %
[2]; pH 5 buffer, 10 min, 37° C.
  3-methylbutanal (mol %) generated from precursor: 95.1 mol %
[2]; pH 5 buffer, 60 min, 37° C.
  3-methylbutanal (mol %) generated from precursor: 98.9 mol %
[2]; pH 7, Control without addition of buffer solution
  3-methylbutanal (mol %) generated from precursor: 0.3 mol %
[2]; pH 7 buffer, 10 min, 37° C.
  3-methylbutanal (mol %) generated from precursor: 54.8 mol %
[2]; pH 7 buffer, 60 min, 37° C.
  3-methylbutanal (mol %) generated from precursor: 97.9 mol %
[2]; pH 9, Control without addition of buffer solution
  3-methylbutanal (mol %) generated from precursor: 0.3 mol %
[2]; pH 9 buffer, 10 min, 37° C.
  3-methylbutanal (mol %) generated from precursor: 9.0 mol %
[2]; pH 9 buffer, 60 min, 37° C.
  3-methylbutanal (mol %) generated from precursor: 35.7 mol %
[3]; cold (10° C.) semi-skimmed milk, 11-point scale −5 to +5, reference at zero
  malty note score against reference: 3.6
[3]; warm (60° C.) semi-skimmed milk (hot milk), scale −5 to +5, reference at zero
  malty note score against reference: 3.3
[4]
  malty note score against reference: 3.5
[5]
  Theoretical release from spike, 3-methylbutanal (ug/vial): 244 ug/vial
[5]; incubation 60° C./15 min
  Yield of conversion of oxazoline to Strecker aldehyde: 77%
[5]; incubation 60° C./15 min, non-spiked reference 28
  3-methylbutanal (ug/vial), sample spiked with oxazoline: 215 ug/vial
[6]; 100 ml warm (60° C.) semi-skimmed milk
  malty note score against reference: 1.2
[6]; 100 ml warm (60° C.) water
  malty note score against reference: 1.7

From patent US20150044346A1, “USE OF OXAZOLINES AS AROMA/FLAVOUR PRECURSORS” (NESTEC S.A., priority 2012, published 2015)
